Activity calls are given as the source filed them. No rule for the calls is given here.
What follows are compounds tested against Regulator of G-protein signaling 4 (Homo sapiens) (UniProt P49798) (assay: RGS4-Galphao interaction modulators, dose response, biochemical, bead-based flow cytometry, multiplex (AID 1872)). Conditions: Bead-based flow cytometry RGS4-Galphao binding.
Regulator of G-protein signaling 4 (Homo sapiens), sequence (P49798 whole entry, looked up): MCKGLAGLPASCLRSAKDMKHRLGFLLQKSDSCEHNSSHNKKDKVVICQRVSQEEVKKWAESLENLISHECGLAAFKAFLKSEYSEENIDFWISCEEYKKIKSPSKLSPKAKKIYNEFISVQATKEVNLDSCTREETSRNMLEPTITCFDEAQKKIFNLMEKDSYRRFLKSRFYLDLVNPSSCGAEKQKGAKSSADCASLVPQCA

| Structure (SMILES) | EC50 |
| --- | --- |
| CCOC(=O)N=Nc1c(O)n(C)c2ccccc12 | > 30 µM (inactive) |
| COc1ccc(Br)cc1/C=N/Nc1cccc(C(=O)O)c1 | > 30 µM (inactive) |
| O=C1CCCC2=C1C(c1cccs1)n1ncnc1N2 (configuration not stated) | inactive |
| CC(C)Sc1nc2ccc(N3C(=O)C4CCCCC4C3=O)cc2s1 (configuration not stated) | > 30 µM (inactive) |
| O=c1[nH]c(=S)n(Cc2ccco2)c(O)c1C=NCc1cccs1 | > 30 µM (inactive) |
| CN(C)[C@@H]1C(=O)C(C(=O)NCN2CCCC2)=C(O)[C@@]2(O)C(=O)C3=C(O)c4c(O)cccc4[C@@](C)(O)C3CC12 (some centres not stated) | 11.8 µM |
| NS(=O)(=O)c1ccc(N/N=C/c2ccc(O)c(O)c2O)c([N+](=O)[O-])c1 | 3.56 µM |
| CCOC(=O)/C(C(=O)Nc1ccccc1Cl)=C1/NC(C)(C)Cc2ccccc21 | inactive |
| CCOC(=O)C1=C(C)NC(C)=C(C(=O)OCCNC(=O)c2cccnc2)C1c1cccc([N+](=O)[O-])c1 (configuration not stated) | > 30 µM (inactive) |

Same assay, conditions: Bead-based flow cytometry RGS4-Galphao binding; measured here: Ki for RGS4-Galphao

| Structure (SMILES) | Ki [µM] |
| --- | --- |
| O=C1CCC(=O)N(O)CCCCCNC(=O)CCC(=O)N(O)CCCCCNC(=O)CCC(=O)N(O)CCCCCN1 | 2.2 |
| CCN=c1scc(C)n1/N=C/c1ccc(O)c(O)c1O | 21.5 |
| CN1CCN(C2=C(Cl)C(=O)C(c3cnc(N4CCCCC4)s3)=C(Cl)C2=O)CC1 | 0.3 |
| O=C(Cc1csc(N2CCOCC2)n1)N/N=C/c1ccc(O)c(O)c1O | 14.8 |
| O=C(O[C@@H]1OC2COC(=O)c3cc(O)c(O)c(O)c3-c3c(cc(O)c(O)c3O)C(=O)O[C@@H]([C@H]1O)[C@@H]2O)c1cc(O)c(O)c(O)c1 | 3.51 |
| CCC(=O)NC1=C(Cl)C(=O)C(NC(=O)CC)=C(Cl)C1=O | 4.61 |
| CC1(C)OC(=O)C(=Cc2ccc(-c3ccc(S(N)(=O)=O)cc3)o2)C(=O)O1 | 8.26 |
| O=C(OCC1O[C@@H](OC(=O)c2cc(O)c(O)c(O)c2)[C@@H](OC(=O)c2cc(O)c(O)c(O)c2)[C@@H](OC(=O)c2cc(O)c(O)c(O)c2)[C@@H]1OC(=O)c1cc(O)c(O)c(O)c1)c1cc(O)c(O)c(O)c1 (some centres not stated) | 0.38 |
| COC(=O)CCC(=O)Nc1sc(C)c(C)c1C(N)=O | 6.49 |
| CCN(CC)S(=O)(=O)c1cccc(C(=O)N/N=C/c2ccc(O)c(O)c2O)c1 | 4.73 |
| COc1ccc(C2=CC(=O)C=CC2=O)cc1 | 19.7 |
| CN=c1scc(C)n1/N=C/c1ccc(O)c(O)c1O | 12 |
| O=C1C(Cl)=C(N2CCCCC2)C(=O)C(Cl)=C1c1cnc(N2CCCCC2)s1 | 1.55 |
| CC(=O)N(O)CCCCCNC(=O)CCC(=O)N(O)CCCCCNC(=O)CCC(=O)N(O)CCCCCN | 1.34 |
| CN(C)c1ncc(C2=C(Cl)C(=O)C(N3CCCC3)=C(Cl)C2=O)s1 | 1.95 |
| Cc1cc(Cl)ccc1N=c1ssnc1Cl | 4.58 |
| CCC(=O)NC(c1ccc(C)cc1)c1cc([N+](=O)[O-])c2cccnc2c1O (configuration not stated) | 10.1 |
| CCNc1ccc2noc3c2c1C(=O)c1ccccc1-3 | 22.5 |
| O=C(O)C[C@@H]1C(=O)O[C@@H]2C(COC(=O)c3cc(O)c(O)c(O)c3)O[C@@H](OC(=O)c3cc(O)c(O)c(O)c3)[C@@H](OC(=O)c3cc(O)c(O)c4c3[C@H]1[C@H](O)C(=O)O4)[C@H]2OC(=O)c1cc(O)c(O)c(O)c1 (some centres not stated) | 0.88 |
| COc1ccc(OC)c(CCNC(=O)Cn2sc3nc(C)cc(C)c3c2=O)c1 | 5.6 |
| O=C1OCC2OC(O)C(O)C(O)C2OC(=O)c2cc(O)c(O)c(O)c2-c2c(O)c(O)c3oc(=O)c4c(c(O)c(O)c5oc(=O)c2c3c54)-c2c1cc(O)c(O)c2O (configuration not stated) | 2.05 |
| Nc1c(C(=O)NCC2CCCO2)sc2nc3c(c(-c4ccco4)c12)CC/C3=C\c1ccco1 (configuration not stated) | 2.77 |
| CCN1/C(=C/C=C/C=C/c2sc3ccccc3[n+]2CC)Sc2ccccc21 | 2.9 |
| CN(C)[C@@H]1C(=O)C(C(=O)NCN2CCCC2)=C(O)[C@@]2(O)C(=O)C3=C(O)c4c(O)cccc4[C@@](C)(O)C3CC12 (some centres not stated) | 10 |
| NS(=O)(=O)c1ccc(CNC(=O)/C=C/c2ccco2)cc1 | 7.78 |
| O=C(COc1ccccc1C(=O)N/N=C\c1ccc(O)c(O)c1)N/N=C/c1ccc(O)c(O)c1 | 3.24 |
| NS(=O)(=O)c1ccc(N/N=C/c2ccc(O)c(O)c2O)c([N+](=O)[O-])c1 | 3.03 |
| COCCCNC(=O)c1ccc2c3c(onc13)-c1ccccc1C2=O | 2.62 |

From PubChem BioAssay AID1872 (NMMLSC, 2009)
